Laboratory results taken from patent publication US9572760B2, “Uses of compounds and mixtures from Antrodia cinnamomea mycelia” (Simpson Biotech Co., Ltd., priority 2013, dated 2017).

Experiments:
[1] = test system: HSC; assay: HSC proliferation by BrdU assay; assay type: cell-based; settings: 24-80 μM; for HSC proliferation (BrdU assay): 24 h, 48 h and 72 h
Method: The Cell Proliferation ELISA, BrdU kit was designed to quantitate cell proliferation bases on the measurement of BrdU incorporation during DNA synthesis in proliferation cells. Briefly, cells (1×10^4 cells/well) were seeded in 100 μl medium in a 96-well plate (Nunc, Denmark) and cultured for 24 h to allow the cells to attach and then treated with three different concentrations ([…]) of either Compound A, B, C and D for 24 h, 48 h and 72 h and the plates were incubated in 37° C. After incubation, the culture medium was labeled with 10 μl/well BrdU (Roche Diagnostic Inc.), and the cells were reincubated for addition 16 h at 37° C. Labeling medium was removed using 10 min centrifuge at 200×g and blow dried. Cells were fixed using 200 μl FixDenat solution and incubated for 30 min at room temperature. Removing the FixDenat solution, 100 μl of anti-BrdU-POD was added and incubated for 90 min at room temperature. After the incubation period, microplates were washed three times with PBS buffer and 100 μl substrate solution was added and incubated for 30 min. Stop solution was added (25 μl of 1 M H2SO4) and absorbance of the samples was measured using ELISA reader at 450 nm.

[2] = test system: pre-fibrotic genes including α-SMA, TIMP, Collagen type I and TGF-β1; assay: Real-time RT-PCR of pre-fibrotic gene expression in liver of cirrhotic animals; assay type: in vivo, Wistar rats; settings: compound B 7 mg/kg, compound C 14 mg/kg, ACM 320 mg/kg
Method: (§1) Sample tissues of rat livers were measured about 0.5×0.5 cm in area. Each of tissue was homogenized in 1 mL of TRIzol buffer (Invitrogen, Carlsbad, Calif., USA) with a motorized pestle, and then mixed with 0.5 mL chloroform/isoamyl alcohol (24:1), and was centrifuged at 12,000×g for 10 min at 4° C. The supernatant was transferred to a fresh tube, and isopropanol was added, mix well and stored at −80° C. overnight. The reaction mixture was centrifuged at 12,000×g for 30 min at 4° C. to produce a rude RNA pallet, the pellet was washed with 70% ethanol and air-dried. The concentrations of total RNA were measured by absorbance at 260 nm using a NanoDrop ND-1000 (NanoDrop, USA). Reverse transcription reaction was performed using a commercially available set of High Capacity RNA-to-cDNA Kit (Applied Biosystems, USA). cDNA was prepared from 2 μg of total RNA per 20 μl reaction, according to the manufacturer's instructions—37° C. for 60 minutes, 95° C. for 5 minutes, and hold at 4° C. The resulting cDNA was to a final concentration of 100 ng/μl and constituted a matrix in further experiments. Amplification and detection the gene expression by real-time PCR were performed using StepOne plus Real-time PCR System (Applied Biosystems, USA). Samples were assayed in a 10 μl reaction mixture containing 2 μl of template DNA, 5 μl of 2× TaqMan PCR Master Mix (Applied Biosystems, Life Technologies, Foster City, Calif., USA), 0.5 μl of 20× assay mix containing probe, forward and reverse primer (Applied Biosystems, Life Technologies, Foster City, Calif., USA), whereby qPCR targets with the following information were used: (a) Rat α-SMA, Assay ID Rn01759928_g1, (b) Rat TIMP, Assay ID Rn00587558_m1, (c) Rat TGF-β1, Assay ID Rn00572010_m1, (d) Rat Collagen I, Assay ID Rn 01463838_m1, (e) Rat CuZnSOD, Assay ID Rn00566938_m1, (f) Rat MnSOD, Assay ID Rn00690587_g1, (g) Rat Catalase, Assay ID Rn00560930_m1, (h) Rat Glutathione peroxidase, Assay ID Rn00577994_g1, (i) Rat NADPH oxidase, Assay ID Rn00585380_m1 and (j) Rat GAPDH, Assay ID Rn1462662_g1. To control variation in mRNA concentration, all results were normalized to the housekeeping gene, GAPDH. Relative quantitation was performed using the comparative ΔΔCt method according to the manufacture's instructions. The cycling conditions used were as follows: 50° C. for 2 min, 95° C. for 10 min followed by 40 cycles of 95° C. for 15 s and 60° C. for 1 min each.

[3] = test system: α-SMA and TGF-β1; assay: Western blot of α-SMA and TGF-β1 in rabbit ear scar tissue; assay type: in vivo, New Zealand white rabbits; settings: 1% w/v topical; for level of TGF-β1 expression (Western blot): day 14, compared with the control groups; for levels of α-SMA expression (Western blot): relative to the control group
Method: The rabbit ear model of hypertrophic scarring was established. In brief, 12 New Zealand white rabbits, weighing 2.5 to 3.0 kg, were prepared for wounding under sterile conditions. Four 1 cm full thickness circular wounds were created down to the cartilage on the ventral side of each ear using a 1 cm punch biopsy. The perichondrial membrane was then dissected off the cartilage using a surgical blade. The test agents including compound B, C and ACM ethanol extract were applied to the wounds of the experimental group ([…] to each wound) every day in concentrations of 1% w/v for 14 days, while the control group received equal amounts of 1% w/v saline.
The scar tissues were lysed; then the protein samples were denatured and then separated on 10.6% polyacrylamide gels, and transferred to the polyvinylidene difluoride membrane. The membranes were incubated in TBS containing 5% nonfat milk and 0.05% Tween-20 for 1 h at room temperature and blotted with primary antibodies (dilution 1:300) at 4° C. overnight. The membranes were washed with TBST for 15 min the next day. Subsequently, the membranes were incubated with horseradish peroxidase-conjugated affinipure goat anti-rabbit antibody (dilution 1:3000) for 1 h at room temperature and washed with TBST for 21 min. The membranes were then detected using ECL. The western blot results were further analyzed with Quantity One software 4.1.1 (Bio-Rad, Hercules, Calif.)

[4] = test system: CuZnSOD, MnSOD, Catalase, Glutathione peroxidase, NADPH oxidase; assay: Real-time RT-PCR of oxidative stress genes (anti-oxidant enzymes, NADPH oxidase) in liver of cirrhotic animals; assay type: in vivo, Wistar rats; settings: compound B 7 mg/kg, compound C 14 mg/kg, ACM 320 mg/kg
Method: as §1

CC(C)=CCOc1ccc(C2=C(CC(C)C)C(=O)NC2=O)cc1 [Compound B, 3-isobutyl-4-[4-(3-methyl-2-butenyloxy)phenyl]-1H-pyrrol-2,5-dione]
potency of effect on HSC proliferation and apoptosis compared to other compounds [1]: most potent effect
HSC proliferation (BrdU assay) [1]: markedly proliferation inhibition
Collagen type I gene expression in liver [2]: reduced significantly
TGF-β1 gene expression in liver [2]: reduced significantly
TIMP gene expression in liver [2]: reduced significantly
α-SMA gene expression in liver [2]: reduced significantly
level of TGF-β1 expression (Western blot) [3]: significantly decreased
levels of α-SMA expression (Western blot) [3]: decreased
Catalase gene expression in liver [4]: up-regulated significantly
CuZnSOD gene expression in liver [4]: up-regulated significantly
Glutathione peroxidase gene expression in liver [4]: up-regulated significantly
MnSOD gene expression in liver [4]: up-regulated significantly
NADPH oxidase gene expression in liver [4]: down-regulated significantly

CC(C)=CCOc1ccc(C2=C(CC(C)C)C(=O)N(O)C2=O)cc1 [Compound C, 3-isobutyl-4-[4-(3-methyl-2-butenyloxy)phenyl]-1H-pyrrol-1-ol-2,5-dione]
HSC proliferation (BrdU assay) [1]: markedly proliferation inhibition
Collagen type I gene expression in liver [2]: reduced significantly
TGF-β1 gene expression in liver [2]: reduced significantly
TIMP gene expression in liver [2]: reduced significantly
α-SMA gene expression in liver [2]: reduced significantly
level of TGF-β1 expression (Western blot) [3]: significantly decreased
levels of α-SMA expression (Western blot) [3]: decreased
Catalase gene expression in liver [4]: up-regulated significantly
CuZnSOD gene expression in liver [4]: up-regulated significantly
Glutathione peroxidase gene expression in liver [4]: up-regulated significantly
MnSOD gene expression in liver [4]: up-regulated significantly
NADPH oxidase gene expression in liver [4]: down-regulated significantly
